According to ChEMBL document CHEMBL3400021, “Systematic synthesis and anti-inflammatory activity of ω-carboxylated menaquinone derivatives--Investigations on identified and putative vitamin K₂ metabolites” (Bioorg Med Chem, 2015):

Legend:
RAW264.7 [1] = assay: Cytotoxicity against mouse RAW264.7 cells; format: cell-based
RAW264.7 [2] = assay: Antiinflammatory activity in mouse RAW264.7 cells assessed as inhibition of LPS-induced IL-1beta level at 5 uM incubated for 24 hrs prior to LPS challenge measured after 3 hrs by qRT-PCR analysis relative to control; format: functional
RAW264.7 [3] = assay: Antiinflammatory activity in mouse RAW264.7 cells assessed as inhibition of LPS-induced TNF-alpha level at 5 uM incubated for 24 hrs prior to LPS challenge measured after 3 hrs by qRT-PCR analysis relative to control; format: functional
RAW264.7 [4] = assay: Antiinflammatory activity in mouse RAW264.7 cells assessed as inhibition of LPS-induced IL-6 level at 5 uM incubated for 24 hrs prior to LPS challenge measured after 3 hrs by qRT-PCR analysis relative to control; format: functional
RAW264.7 [5] = assay: Antiinflammatory activity in mouse RAW264.7 cells assessed as inhibition of LPS-induced IL-6 level at 10 uM incubated for 24 hrs prior to LPS challenge measured after 3 hrs by qRT-PCR analysis relative to control; format: functional
RAW264.7 [6] = assay: Antiinflammatory activity in mouse RAW264.7 cells assessed as inhibition of LPS-induced TNF-alpha level at 10 uM incubated for 24 hrs prior to LPS challenge measured after 3 hrs by qRT-PCR analysis relative to control; format: functional
RAW264.7 [7] = assay: Antiinflammatory activity in mouse RAW264.7 cells assessed as inhibition of LPS-induced IL-1beta level at 10 uM incubated for 24 hrs prior to LPS challenge measured after 3 hrs by qRT-PCR analysis relative to control; format: functional
RAW264.7 [8] = assay: Antiinflammatory activity in mouse RAW264.7 cells assessed as inhibition of LPS-induced TNF-alpha level at 1 uM incubated for 24 hrs prior to LPS challenge measured after 3 hrs by qRT-PCR analysis relative to control; format: functional
RAW264.7 [9] = assay: Antiinflammatory activity in mouse RAW264.7 cells assessed as inhibition of LPS-induced IL-6 level at 1 uM incubated for 24 hrs prior to LPS challenge measured after 3 hrs by qRT-PCR analysis relative to control; format: functional
RAW264.7 [10] = assay: Antiinflammatory activity in mouse RAW264.7 cells assessed as inhibition of LPS-induced IL-1beta level at 1 uM incubated for 24 hrs prior to LPS challenge measured after 3 hrs by qRT-PCR analysis relative to control; format: functional

SMILES | Activity (RAW264.7 [1]) | inhibition at 5 µM (RAW264.7 [2]) | inhibition at 5 µM (RAW264.7 [3]) | inhibition at 5 µM (RAW264.7 [4]) | inhibition at 10 µM (RAW264.7 [5]) | inhibition at 10 µM (RAW264.7 [6]) | inhibition at 10 µM (RAW264.7 [7]) | inhibition at 1 µM (RAW264.7 [8]) | inhibition at 1 µM (RAW264.7 [9]) | inhibition at 1 µM (RAW264.7 [10])
CC1=C(C/C=C(\C)CC/C=C(\C)CCC(=O)O)C(=O)c2ccccc2C1=O | Non-toxic | 51.5% | 26.3% | 52.1% | – | – | – | – | – | –
CC1=C(C/C=C(\C)CCC(=O)O)C(=O)c2ccccc2C1=O | Non-toxic | 28.3% | 25.2% | 29.8% | – | – | – | – | – | –
CC1=C(C/C=C(\C)CC/C=C(\C)CC/C=C(\C)C(=O)O)C(=O)c2ccccc2C1=O | Non-toxic | – | – | – | 46.3% | 24.4% | 37% | – | – | –
CC1=C(C/C=C(\C)C(=O)O)C(=O)c2ccccc2C1=O | Non-toxic | – | – | – | 34.4% | 20.8% | 40.6% | – | – | –
CC1=C(C/C=C(\C)CC/C=C(\C)CC/C=C(\C)CCC(=O)O)C(=O)c2ccccc2C1=O | Non-toxic | – | – | – | 10.6% | 2.2% | 21.3% | – | – | –
CC1=C(CCC(C)C(=O)O)C(=O)c2ccccc2C1=O (stereo not drawn) | Non-toxic | – | – | – | – | – | – | 17.3% | 20.6% | 23.1%
CC1=C(C/C=C(\C)CC/C=C(\C)C(=O)O)C(=O)c2ccccc2C1=O | Non-toxic | – | – | – | – | – | – | 7.7% | 47.7% | 43.5%
